Reference: patent publication US10040781B2, “Tank-binding kinase inhibitor compounds” (Gilead Sciences, Inc., priority 2014, dated 2018)
Read-outs that look alike come from different tables or passages of the source.

Tests used:
IKKε = IKKε (Homo sapiens (Human), UniProt Q14164); test: IKKε TR-FRET enzymatic assay; format: biochemical; conditions: read-out: IKKe IC50
hJAK2 = hJAK2 (Homo sapiens (Human), UniProt O60674); test: hJAK2 LANCE TR-FRET enzymatic assay; format: biochemical; conditions: read-out: JAK2 IC50
Chain of hJAK2 (O60674 whole entry): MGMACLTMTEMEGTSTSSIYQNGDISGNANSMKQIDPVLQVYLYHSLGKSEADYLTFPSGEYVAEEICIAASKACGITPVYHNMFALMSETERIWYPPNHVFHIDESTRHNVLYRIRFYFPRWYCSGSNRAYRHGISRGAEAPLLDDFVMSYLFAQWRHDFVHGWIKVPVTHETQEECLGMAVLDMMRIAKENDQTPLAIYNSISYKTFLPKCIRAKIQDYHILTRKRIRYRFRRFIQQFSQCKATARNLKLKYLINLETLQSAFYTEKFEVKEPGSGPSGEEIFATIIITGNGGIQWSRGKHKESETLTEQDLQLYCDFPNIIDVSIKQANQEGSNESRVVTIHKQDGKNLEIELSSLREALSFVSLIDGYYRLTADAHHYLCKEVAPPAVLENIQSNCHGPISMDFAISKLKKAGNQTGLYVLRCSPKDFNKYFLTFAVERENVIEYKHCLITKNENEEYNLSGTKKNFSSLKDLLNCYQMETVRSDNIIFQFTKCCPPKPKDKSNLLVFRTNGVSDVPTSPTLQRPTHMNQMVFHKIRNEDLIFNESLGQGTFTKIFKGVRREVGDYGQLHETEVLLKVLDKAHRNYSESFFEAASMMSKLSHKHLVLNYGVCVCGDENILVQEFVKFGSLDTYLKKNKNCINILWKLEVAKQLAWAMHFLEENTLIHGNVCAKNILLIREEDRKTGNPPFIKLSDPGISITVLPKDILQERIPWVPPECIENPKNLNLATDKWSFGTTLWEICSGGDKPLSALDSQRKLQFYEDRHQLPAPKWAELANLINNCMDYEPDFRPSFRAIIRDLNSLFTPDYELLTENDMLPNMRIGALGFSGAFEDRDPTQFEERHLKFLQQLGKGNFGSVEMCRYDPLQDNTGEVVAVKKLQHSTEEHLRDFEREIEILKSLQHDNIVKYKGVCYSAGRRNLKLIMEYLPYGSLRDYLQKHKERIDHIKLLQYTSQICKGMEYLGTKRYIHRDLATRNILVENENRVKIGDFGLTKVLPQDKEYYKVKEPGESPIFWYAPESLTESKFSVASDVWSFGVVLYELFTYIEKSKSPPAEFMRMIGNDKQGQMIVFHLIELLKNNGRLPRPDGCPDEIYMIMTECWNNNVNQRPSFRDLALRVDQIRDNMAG

TBK1 = TBK1 (Homo sapiens (Human), UniProt Q9UHD2); test: TBK1 TR-FRET enzymatic assay;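 note: phosphorylation of a biotinylated Ser/Thr peptide by purified full-length recombinant TBK1, read by TR-FRET after 240 min at 25 °C, IC50 is the geometric mean of at least four runs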
Chain of TBK1 (Q9UHD2 whole entry): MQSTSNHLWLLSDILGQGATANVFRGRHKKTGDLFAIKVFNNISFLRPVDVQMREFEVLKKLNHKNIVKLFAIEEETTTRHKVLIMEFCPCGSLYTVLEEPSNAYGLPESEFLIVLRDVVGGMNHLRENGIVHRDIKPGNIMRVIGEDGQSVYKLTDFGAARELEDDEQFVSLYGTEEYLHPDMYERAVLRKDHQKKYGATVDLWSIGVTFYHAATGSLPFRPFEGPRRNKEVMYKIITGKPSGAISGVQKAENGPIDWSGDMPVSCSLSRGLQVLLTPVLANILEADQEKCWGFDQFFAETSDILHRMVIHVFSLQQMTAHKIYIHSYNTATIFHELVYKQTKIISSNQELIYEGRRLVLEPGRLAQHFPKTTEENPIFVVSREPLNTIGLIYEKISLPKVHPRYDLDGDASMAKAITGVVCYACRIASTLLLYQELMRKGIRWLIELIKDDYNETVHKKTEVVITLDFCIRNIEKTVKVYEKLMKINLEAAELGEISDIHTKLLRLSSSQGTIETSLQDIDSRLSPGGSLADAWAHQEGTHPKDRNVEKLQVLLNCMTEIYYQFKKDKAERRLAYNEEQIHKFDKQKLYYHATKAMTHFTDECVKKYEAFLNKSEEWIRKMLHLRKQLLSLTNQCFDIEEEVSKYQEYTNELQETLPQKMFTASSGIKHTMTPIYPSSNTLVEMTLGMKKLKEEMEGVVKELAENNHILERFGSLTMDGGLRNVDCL
Method: Enzymatic activity of IKKε and TBK1 was measured using a homogeneous time resolved fluorescence resonance energy transfer (TR-FRET) assay that monitors enzyme dependent phosphorylation of a biotinylated serine/threonine peptide substrate. […] TBK1 and IKKε were expressed and purified as full length recombinant proteins. Detection reagents for the assay were purchased from Cisbio. […] After an assay reaction time of 240 minutes at 25° C., reactions were terminated with EDTA.
All IC50 values represent geometric mean values of a minimum of four determinations.

[1] = TR-FRET, 2×Km ATP, geometric mean of minimum four determinations

Chain of IKKε (Q14164 whole entry): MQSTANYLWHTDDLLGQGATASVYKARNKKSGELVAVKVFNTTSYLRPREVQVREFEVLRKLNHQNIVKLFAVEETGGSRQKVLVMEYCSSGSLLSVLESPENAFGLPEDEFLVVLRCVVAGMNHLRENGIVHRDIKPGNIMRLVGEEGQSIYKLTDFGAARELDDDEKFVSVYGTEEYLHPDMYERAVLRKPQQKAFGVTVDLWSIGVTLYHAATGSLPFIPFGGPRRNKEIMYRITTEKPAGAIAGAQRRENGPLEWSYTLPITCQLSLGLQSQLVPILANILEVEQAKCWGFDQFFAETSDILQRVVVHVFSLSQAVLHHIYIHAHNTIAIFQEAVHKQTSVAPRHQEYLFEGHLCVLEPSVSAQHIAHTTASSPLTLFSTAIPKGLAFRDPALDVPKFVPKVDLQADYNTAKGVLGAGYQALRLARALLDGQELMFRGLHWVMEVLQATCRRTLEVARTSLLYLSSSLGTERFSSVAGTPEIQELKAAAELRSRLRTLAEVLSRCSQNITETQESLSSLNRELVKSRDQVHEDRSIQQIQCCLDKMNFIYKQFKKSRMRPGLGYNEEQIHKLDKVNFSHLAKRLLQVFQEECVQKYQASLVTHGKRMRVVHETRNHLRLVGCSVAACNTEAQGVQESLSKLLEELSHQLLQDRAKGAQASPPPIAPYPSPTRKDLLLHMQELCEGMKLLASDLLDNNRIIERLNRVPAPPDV

SMILES	IC50 (IKKε)	IC50 (hJAK2)	IC50 (TBK1)	IC50 (IKKε; [1])
N#Cc1cc(-c2ncnc(Nc3ccc(N4CCN(C5COC5)CC4)cc3)n2)ccc1OC1CCNCC1(F)F (racemic) [Example 148, 2-((3,3-difluoropiperidin-4-yl)oxy)-5-(4-((4-(4-(oxetan-3-yl)piperazin-1-yl)phenyl)amino)-1,3,5-triazin-2-yl)benzonitrile]	23 nM	242 nM	3 nM	
N#Cc1cc(-c2ncnc(Nc3cnn(C4CCNCC4)c3)n2)ccc1O[C@H]1CCCC[C@H]1F (racemic) [Example 295, rac-2-(((1S,2R)-2-fluorocyclohexyl)oxy)-5-(4-((1-(piperidin-4-yl)-1H-pyrazol-4-yl)amino)-1,3,5-triazin-2-yl)benzonitrile]	6 nM	154 nM	24 nM	
C[C@H](O)C(=O)N1CC[C@H](Oc2ccc(-c3ncnc(Nc4ccc(N5CCN(C6COC6)CC5)cc4)n3)cc2C#N)C(F)(F)C1 (single isomer, unassigned) [Example 155]	1 nM	198 nM		
N#Cc1cc(-c2ncnc(Nc3ccc(N4CCN(C5COC5)CC4)cc3)n2)ccc1O[C@H]1CCN(C(=O)[C@@H]2CCCN2)C[C@H]1F [Example 133, 2-(((3R,4S)-3-fluoro-1-((S)-pyrrolidine-2-carbonyl)piperidin-4-yl)oxy)-5-(4-((4-(4-(oxetan-3-yl)piperazin-1-yl)phenyl)amino)-1,3,5-triazin-2-yl)benzonitrile]	≥ 1000 nM	≥ 1000 nM		
CS(=O)(=O)OC1CN(c2ccc(-c3ncnc(Nc4ccc(N5CCN(C6COC6)CC5)cc4)n3)cc2C#N)C1 [Example 276, 1-(2-cyano-4-(4-((4-(4-(oxetan-3-yl)piperazin-1-yl)phenyl)amino)-1,3,5-triazin-2-yl)phenyl)azetidin-3-yl methanesulfonate]	38 nM		23 nM	
Cc1nnsc1COc1ccc(-c2ncnc(Nc3ccc(N4CCN(C5COC5)CC4)cc3)n2)cc1C#N [Example 284, 2-((4-methyl-1,2,3-thiadiazol-5-yl)methoxy)-5-(4-((4-(4-(oxetan-3-yl)piperazin-1-yl)phenyl)amino)-1,3,5-triazin-2-yl)benzonitrile]	≥ 1000 nM		475 nM	
COC(=O)N1CC[C@H](Oc2ccc(-c3ncnc(Nc4ccc(N5CCN(C6COC6)CC5)cc4)n3)cc2C#N)[C@H](F)C1 [Example 290, (3R,4S)-methyl 4-(2-cyano-4-(4-((4-(4-(oxetan-3-yl)piperazin-1-yl)phenyl)amino)-1,3,5-triazin-2-yl)phenoxy)-3-fluoropiperidine-1-carboxylate]	32 nM		13 nM	
N#Cc1cc(-c2ncnc(Nc3ccc(N4CCNCC4)c(F)c3)n2)ccc1O[C@H]1CCOC[C@H]1F [Example 298, 5-(4-((3-fluoro-4-(piperazin-1-yl)phenyl)amino)-1,3,5-triazin-2-yl)-2-(((3R,4S)-3-fluorotetrahydro-2H-pyran-4-yl)oxy)benzonitrile]	1 nM		4 nM	
N#Cc1cc(-c2ncnc(Nc3ccc(N4CCN(C5COC5)CC4)cc3)n2)ccc1O[C@H]1CCN(C(=O)c2cnc(N)cn2)C[C@H]1F [Example 341, 2-(((3R,4S)-1-(5-aminopyrazine-2-carbonyl)-3-fluoropiperidin-4-yl)oxy)-5-(4-((4-(4-(oxetan-3-yl)piperazin-1-yl)phenyl)amino)-1,3,5-triazin-2-yl)benzonitrile]	1 nM		2 nM	
Cc1nc(C)c(C(=O)N2CC[C@H](Oc3ccc(-c4ncnc(Nc5ccc(N6CCN(C7COC7)CC6)cc5)n4)cc3C#N)[C@H](F)C2)[nH]1 [Example 345, 2-(((3R,4S)-1-(2,4-dimethyl-1H-imidazole-5-carbonyl)-3-fluoropiperidin-4-yl)oxy)-5-(4-((4-(4-(oxetan-3-yl)piperazin-1-yl)phenyl)amino)-1,3,5-triazin-2-yl)benzonitrile]	12 nM		10 nM	
C[C@H](O)C(=O)N1CC[C@H](Oc2ccc(-c3ncnc(Nc4ccc(N5CCC(C)(O)CC5)cc4)n3)cc2C#N)[C@H](F)C1 [Example 355, 2-(((3R,4S)-3-fluoro-1-((S)-2-hydroxypropanoyl)piperidin-4-yl)oxy)-5-(4-((4-(4-hydroxy-4-methylpiperidin-1-yl)phenyl)amino)-1,3,5-triazin-2-yl)benzonitrile]	2 nM		4 nM	
N#Cc1cc(-c2ncnc(Nc3ccc(N4CCN(C5COC5)CC4)cc3)n2)ccc1O[C@H]1CCN(C(=O)Cn2cnnc2)C[C@H]1F [Example 377, 2-(((3R,4S)-1-(2-(4H-1,2,4-triazol-4-yl)acetyl)-3-fluoropiperidin-4-yl)oxy)-5-(4-((4-(4-(oxetan-3-yl)piperazin-1-yl)phenyl)amino)-1,3,5-triazin-2-yl)benzonitrile]	129 nM		37 nM	
C[C@H](O)C(=O)N1CC[C@H](Oc2ccc(-c3ncnc(Nc4ccc(N5CCOC[C@@H]5CO)cc4)n3)cc2C#N)[C@H](F)C1 [Example 387, 2-(((3R,4S)-3-fluoro-1-((S)-2-hydroxypropanoyl)piperidin-4-yl)oxy)-5-(4-((4-((S)-3-(hydroxymethyl)morpholino)phenyl)amino)-1,3,5-triazin-2-yl)benzonitrile]	2 nM		3 nM	
N#Cc1cc(-c2ncnc(Nc3ccc(N4CCN(C5COC5)CC4)c(F)c3)n2)ccc1O[C@H]1CCN(C(=O)[C@@H](O)CO)C[C@H]1F [Example 409, 2-(((3R,4S)-1-((S)-2,3-dihydroxypropanoyl)-3-fluoropiperidin-4-yl)oxy)-5-(4-((3-fluoro-4-(4-(oxetan-3-yl)piperazin-1-yl)phenyl)amino)-1,3,5-triazin-2-yl)benzonitrile]			2 nM	1 nM
C[C@H]1C[C@H](Oc2ccc(-c3ncnc(Nc4ccc(N5CCN(C6COC6)CC5)cc4)n3)cc2C#N)[C@H](F)CN1C(=O)[C@H]1CCC(=O)N1 [Example 411, 2-(((2S,4S,5R)-5-fluoro-2-methyl-1-((R)-5-oxopyrrolidine-2-carbonyl)piperidin-4-yl)oxy)-5-(4-((4-(4-(oxetan-3-yl)piperazin-1-yl)phenyl)amino)-1,3,5-triazin-2-yl)benzonitrile]			533 nM	≥ 1000 nM
C[C@H]1C[C@H](Oc2ccc(-c3ncnc(Nc4ccc(N5CCN(C6COC6)CC5)cc4)n3)cc2C#N)[C@H](F)CN1C(=O)[C@@H]1CCC(=O)N1 [Example 416, 2-(((2S,4S,5R)-5-fluoro-2-methyl-1-((S)-5-oxopyrrolidine-2-carbonyl)piperidin-4-yl)oxy)-5-(4-((4-(4-(oxetan-3-yl)piperazin-1-yl)phenyl)amino)-1,3,5-triazin-2-yl)benzonitrile]			64 nM	124 nM
N#Cc1cc(-c2ncnc(Nc3ccc(N4CCN(C5COC5)CC4)cc3)n2)ccc1O[C@H]1CCN(Cc2nc(=O)[nH][nH]2)C[C@H]1F [Example 436, 2-(((3R,4S)-3-fluoro-1-((5-oxo-2,5-dihydro-1H-1,2,4-triazol-3-yl)methyl)piperidin-4-yl)oxy)-5-(4-((4-(4-(oxetan-3-yl)piperazin-1-yl)phenyl)amino)-1,3,5-triazin-2-yl)benzonitrile]		156 nM		99 nM
N#Cc1cc(-c2ncnc(Nc3ccc(N4CCN(C5COC5)CC4)cc3)n2)ccc1O[C@H]1CCN(C(=O)c2nc(=O)[nH][nH]2)C[C@H]1F [Example 437, 2-(((3R,4S)-3-fluoro-1-(5-oxo-2,5-dihydro-1H-1,2,4-triazole-3-carbonyl)piperidin-4-yl)oxy)-5-(4-((4-(4-(oxetan-3-yl)piperazin-1-yl)phenyl)amino)-1,3,5-triazin-2-yl)benzonitrile]			4 nM	2 nM
N#Cc1cc(-c2ncnc(Nc3cnn(C(F)F)c3)n2)ccc1O[C@H]1CCN(C(=O)[C@@H](O)CO)C[C@H]1F [Example 456]			4 nM	7 nM
C[C@H](O)C(=O)N1CC[C@H](Oc2ccc(-c3ncnc(Nc4cnn(C(F)F)c4)n3)cc2C#N)[C@H](F)C1 [Example 457, 5-(4-((1-(difluoromethyl)-1H-pyrazol-4-yl)amino)-1,3,5-triazin-2-yl)-2-(((3R,4S)-3-fluoro-1-((S)-2-hydroxypropanoyl)piperidin-4-yl)oxy)benzonitrile]			13 nM	20 nM
N#Cc1cc(-c2ncnc(Nc3ccc(N4CCN5CCOC[C@H]5C4)cc3)n2)ccc1O[C@H]1CCN(C(=O)[C@@H]2CCC(=O)N2)C[C@H]1F [Example 466, 2-(((3R,4S)-3-fluoro-1-((S)-5-oxopyrrolidine-2-carbonyl)piperidin-4-yl)oxy)-5-(4-((4-((R)-hexahydropyrazino[2,1-c][1,4]oxazin-8(1H)-yl)phenyl)amino)-1,3,5-triazin-2-yl)benzonitrile]			4 nM	5 nM
Cc1cc(Nc2ncnc(-c3ccc(O[C@@H]4CCC(=O)NC4)c(C#N)c3)n2)ccc1N1CCN(C2COC2)CC1 [Example 532, (R)-5-(4-((3-methyl-4-(4-(oxetan-3-yl)piperazin-1-yl)phenyl)amino)-1,3,5-triazin-2-yl)-2-((6-oxopiperidin-3-yl)oxy)benzonitrile]			3 nM	2 nM
COc1cc(Nc2ncnc(-c3ccc(O[C@H]4CCN(C(=O)[C@@H](O)CO)CC4(F)F)c(C#N)c3)n2)ccc1N1CCN(C2COC2)CC1 [Example 577, 2-(((S)-1-((S)-2,3-dihydroxypropanoyl)-3,3-difluoropiperidin-4-yl)oxy)-5-(4-((3-methoxy-4-(4-(oxetan-3-yl)piperazin-1-yl)phenyl)amino)-1,3,5-triazin-2-yl)benzonitrile]			2 nM	1 nM
N#Cc1cc(-c2ncnc(Nc3ccc(N4CCN(C5COC5)CC4)cc3)n2)ccc1OCC1(C(N)=O)CC1 [Example 605, 1-((2-cyano-4-(4-((4-(4-(oxetan-3-yl)piperazin-1-yl)phenyl)amino)-1,3,5-triazin-2-yl)phenoxy)methyl)-cyclopropanecarbox-amide]	20 nM		12 nM	
